The results in this text go back to patent US10988474B2, “Compounds acting at multiple prostaglandin receptors giving a general anti-inflammatory response” (ALLERGAN, INC., priority 2011, dated 2021).

The Kb is the affinity of an antagonist, worked out from how it opposes an agonist.

Type in all cases: cell-based
In assay [1] the target is T1, human prostanoid FP receptor (Homo sapiens, UniProt P43088).
T1 construct: expressed in transfected cells
The assay can be described thus: FLIPR Ca2+ signaling PG antagonist assay, FP stable cell line. The following applies: HEK-293 EBNA cells, human recombinant FP, no exogenous G-protein; standard agonist 17-phenyl-PGF2α. The method, then:
(§1) The above compounds were tested for PG antagonist activity as follows using human recombinant prostanoid receptor (DP1, EP1-4, FP, IP and TP) stable cell lines: In order to measure the response of Gs and Gi coupled prostanoid receptors as a Ca^2+ signal, chimeric G protein cDNAs were used. Stable cell lines over-expressing human prostanoid DP1, EP1-4, FP, IP, and TP receptors were established as follows:
(§2) Briefly, human prostanoid DP1, EP2, and EP4 receptor cDNAs were co-transfected with chimeric Gqs cDNA containing a haemagglutanin (HA) epitope; human prostanoid EP3 receptors were co-transfected with chimeric Gqi-HA; human EP1, FP, IP, and TP receptor cDNAs were expressed with no exogenous G-proteins. Gqs and Gqi chimeric cDNAs (Molecular Devices, Sunnyvale, Calif., U.S.A.), as well as cDNAs of prostanoid receptors, were cloned into a pCEP4 vector with a hygromycin B selection marker. Transfection into HEK-293 EBNA (Epstein-Barr virus nuclear antigen) cells was achieved by the FuGENE 6 transfection Reagent (Roche Applied Science, Indianapolis, Ind., USA). Stable transfectants were selected according to hygromycin resistance. Because Gqs and Gqi contained an HA epitope, G-protein expression was detected by Western blotting analysis using anti-mouse HA monoclonal antibody and horseradish peroxidase (HRP)-conjugated secondary antibody, while functional expression of prostanoid receptors was detected by FLIPR screening (Matias et al., 2004). These stable cell lines were validated using previously published antagonists at 10 μM against serial dilutions of standard agonists by FLIPR functional assays for Ca^2+ Signaling (as described below).
(§3) Ca^2+ signaling studies were performed using a FLIPR TETRA system (Molecular Devices, Sunnyvale, Calif., USA) in the 384-format. This is a high-throughput instrument for cell-based assays to monitor Ca^2+ signaling associated with GPCRs and ion channels. Cells were seeded at a density of 5×10^4 cells/well in BioCoat poly-D-lysine coated, black wall, clear bottom 384-well plates (BD Biosciences, Franklin lakes, NJ, USA) and allowed to attach overnight in an incubator at 37° C. The cells were then washed twice with HBSS-HEPES buffer (Hanks' balanced salt solution without bicarbonate and phenol red, 20 mM HEPES, pH 7.4) using an ELx405 Select CW Microplate Washer (BioTek, Winooski, Vt., USA). After 60 min of dye-loading in the dark using the Ca^2+-sensitive dye Fluo-4AM (Invitrogen, Carlsbad, Calif., USA), at a final concentration of 2×10^−6M, the plates were washed 4 times with HBSS-HEPES buffer to remove excess dye and leaving 50 μl of buffer in each well. The plates were then placed in the FLIPR TETRA instrument and allowed to equilibrate at 37° C. Compounds were added in a 25 μl volume to each well to give final concentrations of 0.1 μM, 0.3 μM, 1 μM, 3 μM, 10 μM, and 30 μM; or 0.067 μM, 0.1 μM, 0.2 μM, 0.3 μM, 0.67 μM, and 1 μM for cells over-expressing TP receptors. After 4.5 minutes, a 7-point serial dilution of the standard agonist for the corresponding receptor, in a 25 μl volume was injected at the final concentrations from 10^−11M to 10^−5M in 10-fold serial dilution increments for cells expressing human recombinant DP1, EP1, EP2, EP3, EP4, FP, and IP receptors. The dose range for the standard agonist for human recombinant TP receptors was from 10^−12M to 10^−6M. HBSS-HEPES buffer was used as the negative control for the standard agonists. Cells were excited with LED (light emitting diode) excitation at 470-495 nm and emission was measured through an emission filter at 515-575 nm. Assay plates were read for 3.5 minutes using the FLIPR^TETRA. The peak increase in fluorescence intensity was recorded for each well. On each plate, negative controls, dose response of positive controls, and co-treatments of antagonist-agonist for each dose were in triplicates. Standard agonists were as follows: DP=BW 245C, EP1-EP4=PGE2, FP=17-phenyl-PGF2α, IP=Cicaprost, and TP=U-46619. […]

Assay [2] has as its target T2, human prostanoid EP4 receptor (Homo sapiens, UniProt P35408).
T2 construct: expressed in transfected cells
The assay can be described thus: FLIPR Ca2+ signaling PG antagonist assay, EP4 stable cell line. Particulars: HEK-293 EBNA cells, human recombinant EP4 with chimeric Gqs; standard agonist PGE2. The protocol: as §1, §2, §3

For assay [3], the target named is T3, human prostanoid IP receptor (Homo sapiens, UniProt P43119).
T3 construct: expressed in transfected cells
The assay is described as follows: FLIPR Ca2+ signaling PG antagonist assay, IP stable cell line. The following applies: HEK-293 EBNA cells, human recombinant IP, no exogenous G-protein; standard agonist Cicaprost. The protocol: as §1, §2, §3

The target of assay [4] is T4, human prostanoid DP1 receptor (Homo sapiens, UniProt Q13258).
T4 construct: expressed in transfected cells
T4 sequence (Q13258 1-359): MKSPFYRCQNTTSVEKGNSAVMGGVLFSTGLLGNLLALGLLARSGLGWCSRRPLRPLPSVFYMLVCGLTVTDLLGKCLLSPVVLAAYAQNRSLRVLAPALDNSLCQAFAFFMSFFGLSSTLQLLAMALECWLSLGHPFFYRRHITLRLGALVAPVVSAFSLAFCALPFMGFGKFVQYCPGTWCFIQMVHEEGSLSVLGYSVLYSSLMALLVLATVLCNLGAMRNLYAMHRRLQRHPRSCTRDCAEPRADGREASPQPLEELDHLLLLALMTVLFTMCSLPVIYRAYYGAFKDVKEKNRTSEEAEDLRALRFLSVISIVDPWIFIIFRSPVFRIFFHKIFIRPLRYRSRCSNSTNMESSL
The assay can be described thus: FLIPR Ca2+ signaling PG antagonist assay, DP1 stable cell line. Particulars: HEK-293 EBNA cells, human recombinant DP1 with chimeric Gqs; standard agonist BW 245C; read-out: DP (Kb, PG antagonist activity). The protocol: as §1, §2, §3

The target of assay [5] is T5, human prostanoid EP3 receptor (Homo sapiens, UniProt P43115).
T5 construct: expressed in transfected cells
T5 sequence (P43115 1-390): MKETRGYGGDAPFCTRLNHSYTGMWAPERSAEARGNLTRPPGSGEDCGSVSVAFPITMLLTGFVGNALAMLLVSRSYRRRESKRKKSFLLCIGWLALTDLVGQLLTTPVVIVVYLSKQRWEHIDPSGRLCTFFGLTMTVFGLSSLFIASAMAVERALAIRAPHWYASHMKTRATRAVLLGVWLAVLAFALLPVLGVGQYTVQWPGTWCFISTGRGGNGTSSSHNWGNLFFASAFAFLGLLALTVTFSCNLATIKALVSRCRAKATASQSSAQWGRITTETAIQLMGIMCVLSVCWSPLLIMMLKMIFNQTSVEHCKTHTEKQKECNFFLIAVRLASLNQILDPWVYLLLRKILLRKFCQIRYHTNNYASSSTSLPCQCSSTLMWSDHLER
The assay is described as follows: FLIPR Ca2+ signaling PG antagonist assay, EP3 stable cell line. The following applies: HEK-293 EBNA cells, human recombinant EP3 with chimeric Gqi; standard agonist PGE2. The protocol:
as §1, §2, §3

Each structure is given as a SMILES string. Where only a bound is given, the exact number is not on record here.

T3 sequence (P43119 whole entry): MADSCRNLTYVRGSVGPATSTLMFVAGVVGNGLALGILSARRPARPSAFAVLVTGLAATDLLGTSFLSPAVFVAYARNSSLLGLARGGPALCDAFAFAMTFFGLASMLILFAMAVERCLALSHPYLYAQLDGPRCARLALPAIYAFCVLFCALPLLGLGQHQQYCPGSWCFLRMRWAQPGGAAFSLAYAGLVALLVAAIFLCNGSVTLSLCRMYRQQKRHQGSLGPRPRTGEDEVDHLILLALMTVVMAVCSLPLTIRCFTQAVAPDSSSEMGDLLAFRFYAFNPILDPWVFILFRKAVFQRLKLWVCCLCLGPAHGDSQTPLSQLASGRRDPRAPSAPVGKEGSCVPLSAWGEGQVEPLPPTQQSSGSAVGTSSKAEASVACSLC
T1 sequence (P43088 whole entry): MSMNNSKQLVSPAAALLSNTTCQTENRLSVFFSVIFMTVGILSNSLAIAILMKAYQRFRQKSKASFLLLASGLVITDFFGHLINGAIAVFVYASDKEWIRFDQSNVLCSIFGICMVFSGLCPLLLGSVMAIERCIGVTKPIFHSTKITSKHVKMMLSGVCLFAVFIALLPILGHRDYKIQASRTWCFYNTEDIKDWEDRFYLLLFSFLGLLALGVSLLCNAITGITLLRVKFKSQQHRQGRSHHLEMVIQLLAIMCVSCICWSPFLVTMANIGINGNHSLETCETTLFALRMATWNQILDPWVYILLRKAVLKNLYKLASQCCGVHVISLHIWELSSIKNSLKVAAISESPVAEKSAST
T2 sequence (P35408 whole entry): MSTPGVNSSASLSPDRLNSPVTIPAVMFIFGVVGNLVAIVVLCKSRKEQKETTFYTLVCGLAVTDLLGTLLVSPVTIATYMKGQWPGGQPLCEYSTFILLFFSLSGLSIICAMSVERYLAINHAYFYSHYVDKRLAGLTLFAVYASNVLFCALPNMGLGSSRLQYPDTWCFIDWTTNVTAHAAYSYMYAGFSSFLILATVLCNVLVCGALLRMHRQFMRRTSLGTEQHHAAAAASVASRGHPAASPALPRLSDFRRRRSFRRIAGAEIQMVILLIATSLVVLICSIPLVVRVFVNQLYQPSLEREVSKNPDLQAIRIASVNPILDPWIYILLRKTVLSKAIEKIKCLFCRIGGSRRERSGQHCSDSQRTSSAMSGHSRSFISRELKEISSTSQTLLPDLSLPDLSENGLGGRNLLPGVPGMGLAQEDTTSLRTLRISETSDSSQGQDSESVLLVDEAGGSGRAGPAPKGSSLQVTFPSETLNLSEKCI

For the molecule `CCC(CC)COc1ccc(Cl)cc1Cn1ccc2cc(C(=O)O)ccc21` [Example 1, 1-[5-Chloro-2-(2-Ethyl-Butoxy)-Benzyl]-1H-Indole-5-Carboxylic Acid], the antagonist equilibrium constant (Kb) in assay [1] worked out at 560 nM; in assay [2], 70 nM; in assay [3] it was 2200 nM; in assay [4] it was 2100 nM; in assay [5] it was 5200 nM.

Turning to `CCC(CC)COc1ccc(Cl)cc1Cn1ncc2cc(C(=O)O)ccc21` [Example 2, 1-[5-Chloro-2-(2-Ethyl-Butoxy)-Benzyl]-1H-Indazole-5-Carboxylic ACID], the Kb in assay [1] is 160 nM; in assay [2], 20 nM; in assay [3], 1100 nM; in assay [4], 1300 nM; in assay [5] it was 1100 nM.

For the molecule `CC(C)COc1ccc(Br)cc1Cn1ncc2cc(C(=O)O)ccc21` [Example 4], the Kb came to 20 nM in assay [1]; 25 nM in assay [2]; 800 nM in assay [3]; 700 nM in assay [4]; 1500 nM in assay [5].

Regarding `CCC(CC)COc1ccc(Cl)cc1Cn1ncc2ccc(C(=O)O)cc21` [Example 6], the Kb was 2400 nM in assay [1]; ≥ 10000 nM in assay [2]; ≥ 10000 nM in assay [3]; 7100 nM in assay [4]; ≥ 10000 nM in assay [5].

Consider `CC(C)COc1ccc(Br)cc1Cn1ncc2c(C(=O)O)cccc21` [Example 7, 1-(5-Bromo-2-Isobutoxy-Benzyl)-1H-Indazole-4-Carboxylic Acid], for which the Kb is 300 nM in assay [1]; 1800 nM in assay [2]; 1300 nM in assay [3]; 1900 nM in assay [4]; ≥ 10000 nM in assay [5].

For `O=C(O)c1ccc2c(cnn2Cc2cc(Cl)ccc2OCc2ccccc2)c1` [Example 8, 1-(2-Benzyloxy-5-Chloro-Benzyl)-1H-Indazole-5-Carboxylic Acid], the antagonist dissociation constant (Kb) was 200 nM in assay [1]; 1300 nM in assay [2]; 2800 nM in assay [3]; 2600 nM in assay [4]; ≥ 10000 nM in assay [5].

Take `O=C(O)c1ccc2c(cnn2Cc2cc(Cl)ccc2OCc2ccc(Cl)cc2)c1` [Example 9, 1-[5-Chloro-2-(4-Chloro-Benzyloxy)-Benzyl]-1H-Indazole-5-Carboxylic Acid]: the antagonist equilibrium constant (Kb) in assay [1] amounted to 20 nM; in assay [2], 3000 nM; in assay [3], 1350 nM; in assay [4], 1200 nM; in assay [5], 4900 nM.

For the molecule `O=C(O)c1ccc2c(cnn2Cc2cc(Cl)ccc2OCC2CCCC2)c1` [Example 10, 1-(5-Chloro-2-Cyclopentylmethoxy-Benzyl)-1H-Indazole-5-Carboxylic Acid], the Kb in assay [1] is 30 nM; in assay [2] it was 20 nM; in assay [3] it was 400 nM; in assay [4], 440 nM; in assay [5], 1100 nM.

Take `O=C(O)c1ccc2c(cnn2Cc2cc(Cl)ccc2OCC2CC2)c1` [Example 11, 1-(5-Chloro-2-Cyclopropylmethoxy-Benzyl)-1H-Indazole-5-Carboxylic Acid]: the Kb in assay [1] stood at 120 nM; in assay [2], 110 nM; in assay [3], 5500 nM; in assay [4], 900 nM; in assay [5], 6500 nM.

For `O=C(O)c1ccc2c(cnn2Cc2cc(Br)ccc2OCc2ccccc2)c1` [Example 12, 1-(2-Benzyloxy-5-Bromo-Benzyl)-1H-Indazole-5-Carboxylic Acid], the Kb was 120 nM in assay [1]; 1150 nM in assay [2]; 5000 nM in assay [3]; 1600 nM in assay [4]; ≥ 10000 nM in assay [5].

Take `O=C(O)c1ccc2c(cnn2Cc2cc(Br)ccc2OCc2ccc(Cl)cc2)c1` [Example 13, 1-[5-Bromo-2-(4-Chloro-Benzyloxy)-Benzyl]-1H-Indazole-5-Carboxylic Acid]: the Kb in assay [1] came to 20 nM; in assay [2] it was 2700 nM; in assay [3] it was 600 nM; in assay [4], 1200 nM; in assay [5] it was 8500 nM.

In the case of `O=C(O)c1ccc2c(cnn2Cc2cc(Br)ccc2OCC2CCCC2)c1` [Example 14, 1-(5-Bromo-2-Cyclopentylmethoxy-Benzyl)-1H-Indazole-5-Carboxylic Acid], the Kb in assay [1] came out at 30 nM; in assay [2] it was 15 nM; in assay [3] it was 340 nM; in assay [4] it was 600 nM; in assay [5], 1500 nM.

`O=C(O)c1ccc2c(cnn2Cc2cc(Br)ccc2OCC2CC2)c1` [Example 15, 1-(5-Bromo-2-Cyclopropylmethoxy-Benzyl)-1H-Indazole-5-Carboxylic Acid]: the Kb in assay [1] was determined as 130 nM; in assay [2] it was 200 nM; in assay [3], 1800 nM; in assay [4], 1800 nM; in assay [5] it was 8400 nM.

On to `CC(C)COc1ccc(Cl)cc1Cn1cc2cc(C(=O)O)ccc2n1` [Example 16, 2-(5-Chloro-2-Isobutoxy-Benzyl)-2H-Indazole-5-Carboxylic Acid], for which the Kb in assay [1] amounted to 3000 nM; in assay [2], 600 nM; in assay [3] it was 6600 nM; in assay [4], 1500 nM; in assay [5] it was 4000 nM.

In the case of `CC(C)COc1ccc(Br)cc1Cn1cc2cc(C(=O)O)ccc2n1` [Example 17, 2-(5-Bromo-2-Isobutoxy-Benzyl)-2H-Indazole-5-Carboxylic Acid], the Kb in assay [1] was 2300 nM; in assay [2] it was 600 nM; in assay [3] it was ≥ 10000 nM; in assay [4] it was 3500 nM; in assay [5], ≥ 10000 nM.

`CC(C)COc1ccc(C(F)(F)F)cc1Cn1ncc2cc(C(=O)O)ccc21` [Example 18]: the Kb was determined as 20 nM in assay [1]; 60 nM in assay [2]; 6500 nM in assay [3]; 1400 nM in assay [4]; 4000 nM in assay [5].
